The record followed here is publication PMC5831858, “Pharmacological characterisation of CR6086, a potent prostaglandin E2 receptor 4 antagonist, as a new potential disease-modifying anti-rheumatic drug” (Arthritis Research & Therapy, 2018).

The subject of assay [1] is arthritic mice (collagen-induced arthritis model). The assay is described as follows: CIA in mice, first study: clinical score and paw swelling. The format is in vivo, mouse. The settings on record: 10 days; CR6086 30 and 60 mg/kg, naproxen 60 mg/kg oral once daily; etanercept 10 mg/kg i.p. every other day. How it is done:
Male DBA/1 mice were immunised by intradermal injection at the base of the tail with an emulsion of 200 μg of bCII in CFA containing 3 mg/ml Mycobacterium tuberculosis. Non-immunised mice served as the negative control of disease. Animals were monitored by visual inspection for appearance of peripheral oedema. […] Upon onset, animals were recruited and randomised. Recruitment was given a cut-off at day 40. Upon recruitment, arthritis clinical score was assigned, and oedema was measured via caliper.
(§1) In a first study, mice were randomised into the following treatment groups: vehicle, 30 mg/kg CR6086, 60 mg/kg CR6086, 60 mg/kg naproxen and 10 mg/kg etanercept. Animals received the test drugs for 10 days. CR6086 and naproxen were administered orally once daily, whereas etanercept was administered intraperitoneally every other day. Animals treated with vehicle, 60 mg/kg CR6086, naproxen and etanercept were additionally analysed for the proportion of populations of Th17 cells, Th1 cells, regulatory T cells, B cells, macrophages, neutrophils and dendritic cells by fluorescence-activated cell sorting (FACS) after collection of blood, draining lymph nodes and joints.
Oedema measurement was performed every day before treatment, and all animals were blindly scored for clinical signs of arthritis as follows: 0 = normal; 1 = slight swelling and/or erythema; 2 = pronounced oedematous swelling; and 3 = ankyloses and severe swelling. A score of 0.5 was given to swollen toe/toes or when inflammation was localised to one part of the foot. Each limb was measured separately, with a final score based on the sum of the scores from all four paws.

Assay [2] shares this test system. The assay is described as follows: FACS analysis of cell populations in the joint, CIA mice. The settings on record: CR6086 60 mg/kg, naproxen 60 mg/kg, etanercept 10 mg/kg, mean ± SEM. The format is in vivo, mouse. How it is done:
as §1

The subject of assay [3] is arthritic rats (collagen-induced arthritis model). The assay is described as follows: Collagen-induced arthritis in rats: clinical score, oedema, histology. The format is in vivo, rat. The settings on record: 15 mg/kg once daily. The method, then:
(§2) Male Lewis rats were immunised by intradermal injection at the base of the tail with an emulsion containing 150 μg of bovine collagen type II (bCII) in complete Freund’s adjuvant (CFA) or received an injection with incomplete Freund’s adjuvant (sham group). Three weeks after the first immunisation, animals were boosted with the same procedure. Three days after booster injection, arthritis had developed in all animals but the sham group. Oedema was assessed via plethysmometer (Ugo Basile, Varese, Italy), and the animals were then randomised to treatment groups. Oedema measurement was performed again after 7 and 14 days of treatment. Animals were blindly scored by two different investigators for clinical signs of arthritis (redness, swelling, pain of hind limb joints) as follows: 0 = normal; 1 = mild but definite redness and swelling of the ankle or wrist or individual digits, regardless of the number of affected digits; 2 = moderate redness and swelling of ankle or wrist; 3 = severe redness and swelling of the entire paw including digits; and 4 = maximally inflamed limb with involvement of multiple joints. The mean of the scores assigned by the investigators was calculated.
Three different experiments in rat CIA are reported: a dose-response study, as well as two comparative studies vs the COX-2 inhibitor rofecoxib and the Janus kinase (JAK) inhibitor tofacitinib, respectively.
Briefly, the paws were fixed in 10% neutral buffered formalin (Bio-Optica, Milan, Italy) and subsequently decalcified in EDTA for 4 weeks. Samples were dehydrated in an ethanol series and embedded in paraffin. At least three non-consecutive sections for each paw were blindly scored at the level of the tarsus, metatarsus and calcaneus for the following histological features: synovial oedema, pannus, synovial inflammatory cell infiltrate, cartilage damage, osteolysis and woven bone. Based on these histological features, a synovial score (synovial oedema, plus synovial inflammatory cell infiltrate, plus pannus), a bone score (woven bone plus osteolysis) and a total score were calculated. Two independent pathologists performed histopathology on blinded slides. The data of right and left hind limbs were summed for each rat.

For assay [4] the test system is unchanged. Briefly: Mechanical hyperalgesia (PAM) in CIA rats. The format is in vivo, rat. The settings on record: 15 mg/kg, mean ± SEM. The method, then: as §2
In the comparative experiment vs rofecoxib, mechanical hyperalgesia was assessed at the end of treatment by using a digital pressure application measurement (PAM) device (Ugo Basile). Increasing pressure was applied to the lateral side of the knee until the animal attempted to escape or vocalised. The force required to elicit this response was measured in grams (gram-force). An optimal stimulus increase rate of 100 g/second was used, and mechanical thresholds were reached after approximately 10 seconds. This increase was visualised with a rate meter on the built-in display, so the pressure applied was visually controlled. At the end of the experiment, animals were killed, and their hind paws were explanted and processed for histology.

The subject of assay [5] is arthritic mice (collagen-induced arthritis model). The assay is described as follows: CIA in mice, third study (CR6086, MTX, combination): clinical score, oedema, histology. The assay is classed as in vivo, mouse. The settings on record: for CLINICAL SCORE (interquartile range): median (IQR).
Assay [6] has the same test system. Briefly: Serum anti-bCII IgG antibodies (ELISA), CIA mice third study. The assay is classed as in vivo, mouse. The settings on record: end of treatment. How it is done: In a third study, mice were randomised into the following treatment groups: naive, vehicle, 30 mg/kg CR6086, 1 or 3 mg/kg MTX, with the latter administered alone or in combination with 30 mg/kg CR6086. CR6086 was administered orally once daily. MTX was administered intraperitoneally three times per week (every third day). Mice were treated with test drugs for 16 days.
At the end of the treatment period, animals were killed, and their paws were explanted and processed for histology. In the third study, the serum concentrations of immunoglobulin G (IgG) antibodies against bCII were measured by ELISA (catalogue number 2032; Chondrex, Redmond, WA, USA).
Background: ELISA stands for enzyme-linked immunosorbent assay.

Marks after values point to notes of the source that are not given here.

On to etanercept, for which the “effect on disease parameters (visual clinical score, paw swelling) vs vehicle” value in assay [1] is given as “significantly improved”. Moreover, in assay [2], the “B cells, Percentage of total cells” value came out at 5.74 ± 0.68%; the “Dendritic cells, Percentage of total cells” value came out at 1.51 ± 0.18%; the “Macrophages, Percentage of total cells” value amounted to 12.31 ± 5.19%; the “Neutrophils, Percentage of total cells” value is recorded as 10.53 ± 2.81%. For the same compound, in assay [2], the “Th1, Percentage of total cells” value was 0.20 ± 0.05^a %; the “Th17, Percentage of total cells” value was determined as 0.16 ± 0.08%; the “Treg, Percentage of total cells” value was 0.39 ± 0.10%.
Consider `CS(=O)(=O)c1ccc(C2=C(c3ccccc3)C(=O)OC2)cc1` [rofecoxib, reference compound], for which the “effect on clinical score” value in assay [3] is “small effect”. In assay [3] (14 days), the “effect on structural and inflammatory parameters (oedema, histology)” value is listed as “improved to a slight but significant extent the inflammatory parameters (not the structural ones)”. Besides, the “Mechanical hyperalgesia, Day 0” value in assay [4] (Day 0) is 943.70 ± 73.42^a gram-force. The “Mechanical hyperalgesia, Day 7” value in assay [4] (Day 7) is listed as 673.18 ± 53.76^b gram-force. In addition, in assay [4] (Day 14), the “Mechanical hyperalgesia, Day 14” value is given as 799.68 ± 61.15^b,c gram-force.
For the compound `CN(Cc1cnc2nc(N)nc(N)c2n1)c1ccc(C(=O)N[C@@H](CCC(=O)O)C(=O)O)cc1` [MTX, methotrexate], the “effect on joint histopathology” value in assay [5] (16 days, 30 mg/kg CR6086, 3 mg/kg MTX, alone or combined) is on record as “significantly improved all histological features of arthritis”. Also, the “CLINICAL SCORE (interquartile range)” value was 3.0 (2.4 – 3.3) * in assay [5] (DAY 0, 1 mg/kg MTX); 2.0 (2.0 – 2.0) * in assay [5] (DAY 0, 3 mg/kg MTX); 2.8 (2.0 – 3.0) in assay [5] (DAY 1, 1 mg/kg MTX); 2.3 (2.0 – 3.0) in assay [5] (DAY 1, 3 mg/kg MTX); 3.0 (3.0 – 4.0) in assay [5] (DAY 2, 1 mg/kg MTX); 3.0 (2.1 – 3.8) in assay [5] (DAY 2, 3 mg/kg MTX). The “CLINICAL SCORE (interquartile range)” value in assay [5] (DAY 3, 1 mg/kg MTX) is recorded as 4.0 (3.0 – 4.8); in assay [5] (DAY 3, 3 mg/kg MTX) it was 3.0 (2.3 – 6.0); in assay [5] (DAY 4, 1 mg/kg MTX), 3.5 (3.0 – 5.5); in assay [5] (DAY 4, 3 mg/kg MTX) it was 4.0 (2.0 – 5.5); in assay [5] (DAY 5, 1 mg/kg MTX) it was 5.0 (3.4 – 6.3); in assay [5] (DAY 5, 3 mg/kg MTX) it was 3.5 (2.4 – 4.8). For the same compound, the “CLINICAL SCORE (interquartile range)” value in assay [5] (DAY 6, 1 mg/kg MTX) is recorded as 4.8 (3.3 – 8.1); in assay [5] (DAY 6, 3 mg/kg MTX) it was 4.0 (2.0 – 5.5); in assay [5] (DAY 7, 1 mg/kg MTX), 4.5 (2.8 – 7.5); in assay [5] (DAY 7, 3 mg/kg MTX), 4.5 (2.6 – 6.0); in assay [5] (DAY 8, 1 mg/kg MTX), 5.5 (3.8 – 7.6); in assay [5] (DAY 8, 3 mg/kg MTX) it was 4.3 (2.4 – 6.4). Also, the “CLINICAL SCORE (interquartile range)” value was 5.0 (3.3 – 7.0) in assay [5] (DAY 9, 1 mg/kg MTX); 4.5 (3.0 – 5.0) in assay [5] (DAY 9, 3 mg/kg MTX); 6.5 (3.0 – 7.3) in assay [5] (DAY 10, 1 mg/kg MTX); 5.0 (2.5 – 5.5) in assay [5] (DAY 10, 3 mg/kg MTX); 7.3 (4.4 – 7.5) in assay [5] (DAY 11, 1 mg/kg MTX); 5.0 (2.5 – 6.0) in assay [5] (DAY 11, 3 mg/kg MTX). Also, the “CLINICAL SCORE (interquartile range)” value is 6.8 (5.3 – 7.5) in assay [5] (DAY 12, 1 mg/kg MTX); 5.5 (2.0 – 7.5) in assay [5] (DAY 12, 3 mg/kg MTX); 6.3 (4.5 – 7.0) in assay [5] (DAY 13, 1 mg/kg MTX); 6.0 (2.0 – 7.0) in assay [5] (DAY 13, 3 mg/kg MTX); 7.3 (5.0 – 7.6) in assay [5] (DAY 14, 1 mg/kg MTX); 4.5 (2.0 – 6.0) in assay [5] (DAY 14, 3 mg/kg MTX). Moreover, the “CLINICAL SCORE (interquartile range)” value in assay [5] (DAY 15, 1 mg/kg MTX) is 6.5 (5.0 – 7.5); in assay [5] (DAY 15, 3 mg/kg MTX) it was 4.5 (3.1 – 7.0); in assay [5] (DAY 16, 1 mg/kg MTX), 6.5 (5.5 – 8.3); in assay [5] (DAY 16, 3 mg/kg MTX), 4.5 (2.3 – 5.4). Moreover, the “Anti-collagen II” value in assay [6] (1 mg/kg MTX) is 483.83 ± 102.82 µg/mL; in assay [6] (3 mg/kg MTX) it was 242.46 ± 79.35 µg/mL.
